According to patent publication US20230137092A1, “Composition and Method for the Treatment and Prevention of Cardiac, Pulmonary, Dermal, and Renal Fibrosis” (EMERALD HEALTH PHARMACEUTICALS INC., priority 2020, published 2023):

Legend:
[1] = Weight and behaviour observation during the therapeutic Ang II protocol; type: in vivo, mouse; conditions: 20 mg/kg daily oral gavage
Experimental: (§1) For the therapeutic model, infusion of Ang II for four weeks and the compound of Formula (VIII) (20 mg/kg) was administrated after two weeks of pump implantation. Subcutaneous infusion of Ang II using ALZET osmotic minipumps was used to study the preventive effects of the compound ALZET® osmotic minipumps (Model #2004, Charles Rives, Barcelona, Spain) delivering of Ang II (500 ng kg^−1 min^−1) (Sigma-Aldrich, Madrid, Spain) for four weeks. Compound treatment was daily administered in parallel, two weeks after the implantation of the subcutaneous pump, beneath the midscapular loose skin and consisted of daily oral gavage of compound of Formula (VIII) (20 mg/kg) or vehicle (Corn Oil/Maisine CC, 1/1). Mice were acclimated to manipulators for a week previously to the experiments in order to reduce stress and allow the detection of subtle changes in behavior by researchers. […] Neither piloerection nor hunched appearances were appreciated during the experimental procedures. Mice were sacrificed by cervical dislocation and the heart, aorta, kidney, and lung were removed and processed for histological examination or were frozen for further analysis.

[2] = Weight and behaviour observation during the preventive Ang II protocol; type: in vivo, mouse; conditions: 20 mg/kg daily oral gavage
Experimental: Ang II causes myocardial fibrosis in a short period of time (Sopel M et al., 2011, Lab. Invest., 91:565-578) characterized by collagen accumulation and after 14 days of Ang II infusion (Sigusch H H et al., 1996, Cardiovascular Research, 31:546-554). […] Subcutaneous infusion of Ang II using ALZET® osmotic pumps was used to study compound preventive effects. ALZET® osmotic minipumps (Model #2004, Charles Rives, Barcelona, Spain) delivering of Ang II (1.0 mg kg^− min^−) (Sigma-Aldrich, Madrid, Spain) for two weeks. Compound treatment was daily administered in parallel, one day before of the implantation of the subcutaneous pump, beneath the mid scapular loose skin and consisted of daily oral gavage of compound (20 mg/kg) or vehicle (Corn Oil/Maisine CC, 1/1). Mice were acclimated to manipulators for a week previously to the experiments in order to reduce stress and allow the detection of subtle changes in behavior by researchers. […] Neither piloerection nor hunched appearances were appreciated during the experimental procedures. Mice were sacrificed by cervical dislocation and the heart, aorta, skin, and kidney were removed and processed for histological examination or were frozen for further analysis.

hICF cells = test: Real-time PCR of IL1b, IL6, Col1A2 and CCL2 mRNA in hICF; type: cell-based, human; conditions: induced by Ang II or TGFb in hICF cells
Experimental: hICF (5×10^4 cells/cm^2) were preincubated with Compound of Formula (VIII), stimulated with Ang II for either 2 hours or 24 hours and total RNA was extracted using High Pure Isolation Kit (Roche Diagnostic, Switzerland). Total RNA (1 μg) was retrotranscribed using the iScript™ cDNA Synthesis Kit (Bio-Rad) and the cDNA analyzed using a CFX96 Real-Time PCR Detection System (Bio-Rad) by real-time PCR using the iQ™ SYBR Green Supermix (Bio-Rad). Human HPRT was used for in vitro studies to standardize the mRNA expression levels in each sample. Expression levels were calculated using the 2-ΔΔCt method. Compound of Formula (VIII) inhibited the mRNA expression of IL1b, IL6, Col1A2 and CCL2, induced by Ang II or TGFb in hICF cells (FIG. 17).

NFAT = test: Gal4-NFAT / Gal4-Luc reporter assay in hICF; type: cell-based, human; conditions: hICF transfected with Gal4-Luc and Gal4-NFAT, stimulated 6 hours
Experimental: hICF cells were transiently transfected for 24 hours with the Gal4-Luc reporter plasmid (which includes five Gal4 DNA binding sites fused to the luciferase gene) and the Gal4-NFAT1-415plasmid for 24 hours using Roti-Fect (Carl Roth GmbH & Co. KG, Karlsruhe, Germany). Then cells were stimulated for 6 hours and luciferase activity in the cell lysates was measured. The specific transactivation expressed as a percentage of activation relative to control. Compound of Formula (VIII) inhibited Ang II-induced NFAT activation (FIG. 16B).

[3] = system: Ang II-induced renal fibrosis; test: Ang II therapeutic model: renal fibrosis, Sirius red; type: in vivo, mouse; conditions: Ang II four weeks, 20 mg/kg oral last two weeks, #p<0.05 versus Ang II group
Experimental: as §1

Question: For `C=C(C)C1CCC(C)=C[C@H]1C1=C(O)C(=O)C(CCCCC)=C(NCc2ccccc2)C1=O` (stereo partly shown) [Formula (VIII)], which behavioral changes [1] is on record?
Answer: Its behavioral changes is “No behavioral changes”.

Question: What about the mice weight ([1]; between experimental groups) of the same compound?
Answer: Its mice weight is “no significant changes”.

Question: And the behavioral changes [2]?
Answer: Its behavioral changes is “No behavioral changes”.

Question: What about the mice weight ([2]; between experimental groups) of the same compound?
Answer: Its mice weight is “no significant changes”.

Question: And the “CCL2 mRNA expression” value (hICF cells)?
Answer: The value was “inhibited”.

Question: And the “Col1A2 mRNA expression” value (hICF cells)?
Answer: The value was “inhibited”.

Question: And the “IL1b mRNA expression” value (hICF cells)?
Answer: Its value is “inhibited”.

Question: What about the “IL6 mRNA expression” value (hICF cells) of the same compound?
Answer: Its value is “inhibited”.

Question: And the “Ang II-induced NFAT activation (luciferase)” value (NFAT)?
Answer: Its value is “inhibited”.

Question: And the “renal fibrosis (collagen accumulation in kidney)” value [3]?
Answer: Its value is “reduced”.
